Assay results published in PubChem BioAssay (NCI).
Where “and” joins values, the source holds several entries; their conditions need not be identical. Equal entries are not always repeated.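 The compound was tested at five concentrations on cells cultured in 96-well plates, with a 48-hour exposure period. At the GI50, growth is halved. TGI denotes the concentration required for complete inhibition of growth.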

Key:
Experiment in all cases: inhibition of tumour cell growth, NCI panel, 48 h
DU-145 prostate = tested on: DU-145 prostate
HS 578T breast = tested on: HS 578T breast
HT29 colon = tested on: HT29 colon
MDA-MB-435 = tested on: MDA-MB-435
OVCAR-3 ovarian = tested on: OVCAR-3 ovarian
PC-3 prostate = tested on: PC-3 prostate
RXF 393 renal = tested on: RXF 393 renal
SF-268 CNS = tested on: SF-268 CNS
SR leukemia = tested on: SR leukemia
SW-620 colon = tested on: SW-620 colon

Structure (SMILES)	GI50 (DU-145 prostate)	TGI (DU-145 prostate)	GI50 (HS 578T breast)	TGI (HS 578T breast)	GI50 (HT29 colon)	TGI (HT29 colon)	GI50 (MDA-MB-435)	TGI (MDA-MB-435)	GI50 (OVCAR-3 ovarian)	TGI (OVCAR-3 ovarian)	GI50 (PC-3 prostate)	TGI (PC-3 prostate)	GI50 (RXF 393 renal)	TGI (RXF 393 renal)	GI50 (SF-268 CNS)	TGI (SF-268 CNS)	GI50 (SR leukemia)	TGI (SR leukemia)	GI50 (SW-620 colon)	TGI (SW-620 colon)
O=C1c2cccc3c(N4CCN(c5ccc6c7c(cccc57)C(=O)N(CCN5CCNCC5)C6=O)CC4)ccc(c23)C(=O)N1CCN1CCNCC1	14.1 µM	40.6 µM	17.2 µM	44.8 µM	3.91 µM	> 100 µM	13.2 µM	34.2 µM	20.3 µM	42.1 µM	13.5 µM	32.4 µM	16.8 µM	33 µM	16.8 µM	70.7 µM	2.64 µM	8.66 µM	7.64 µM	77.7 µM
Clc1ccc2c(NCCCN3CCN(c4nc(-n5ccnc5)nc5ccccc45)CC3)ccnc2c1	> 100 µM	> 100 µM	2.28 µM	19.2 µM	1.88 µM	4.47 µM	1.74 µM	3.2 µM	1.55 µM	3.15 µM	–	> 100 µM	1.67 µM	3.34 µM	–	–	1.9 µM	5.7 µM	–	–
O=C1OC(c2ccc([N+](=O)[O-])cc2)=N/C1=C\c1ccc(O)cc1	–	> 100 µM	–	> 100 µM	–	> 100 µM	–	> 100 µM	–	> 100 µM	–	> 100 µM	–	> 100 µM	–	> 100 µM	–	> 100 µM	–	> 100 µM
Cc1ccnc2c1NC(=O)c1cccnc1N2C1CC1	> 100 µM	> 100 µM	> 100 µM	> 100 µM	> 100 µM	> 100 µM	> 100 µM	> 100 µM	> 100 µM	> 100 µM	> 100 µM	> 100 µM	> 100 µM	> 100 µM	> 100 µM	> 100 µM	> 100 µM	> 100 µM	> 100 µM	> 100 µM
CS(=O)(=O)c1ccc(C(F)(F)F)cc1NC(=O)Nc1cnc(Oc2ccc(-c3cc(Cl)cnc3N)cc2)nc1	3.21 µM	> 54.2 µM	2.08 µM	8.44 µM	2.24 µM	7.52 µM	2.23 µM	5.79 µM	2.08 µM	4.67 µM	2.05 µM	6.23 µM	1.79 µM	4.61 µM	2.39 µM	10.3 µM	1.98 µM	4.66 µM	3.24 µM	16.8 µM
O=C(c1cccs1)c1c(C(F)(F)F)n([O-])c2cc(F)c(F)cc2[n+]1=O	1.9 µM	4.86 µM	1.21 µM	12.1 µM	9.5 µM	50 µM	2.62 µM	5.28 µM	1.66 µM	4.14 µM	2.62 µM	4.82 µM	2.42 µM	7.16 µM	2.99 µM	6.88 µM	0.096 µM	0.48 µM	2.45 µM	4.09 µM
N#CC1=C(N)Oc2c(sc3c(F)cccc23)C1c1ccc([N+](=O)[O-])cc1 (configuration not stated)	0.34 µM	1.38 µM	0.194 µM	0.808 µM	0.323 µM	1.47 µM	0.0272 µM	0.0848 µM	0.185 µM	1.06 µM	0.241 µM	1.71 µM	0.191 µM	0.753 µM	0.325 µM	1.93 µM	0.0478 µM	7.42 µM	0.0723 µM	1.42 µM
CCOC(=O)c1c(C)c2c(n1C)CSc1cc(S(=O)(=O)c3ccccc3)c(=O)[nH]c1-2	23.1 µM	> 100 µM	40.1 µM	> 100 µM	16.3 µM	34.5 µM	30.8 µM	> 100 µM	17.1 µM	43.6 µM	14 µM	> 100 µM	44.4 µM	> 100 µM	27.8 µM	> 100 µM	29.3 µM	> 100 µM	35.1 µM	> 100 µM
C=CCSc1n[nH]c(-c2cccs2)n1	> 100 µM	> 100 µM	> 100 µM	> 100 µM	> 100 µM	> 100 µM	> 100 µM	> 100 µM	> 100 µM	> 100 µM	> 100 µM	> 100 µM	> 100 µM	> 100 µM	> 100 µM	> 100 µM	> 100 µM	> 100 µM	> 100 µM	> 100 µM
CCC(=S)N(C)O	–	> 100 µM	–	> 100 µM	–	24.1 µM	–	> 100 µM	–	> 100 µM	–	> 100 µM	–	> 100 µM	–	> 100 µM	–	24.1 µM	–	> 100 µM
O=C(O)[C@@H]1C[C@@H](O)CN1	–	> 100 µM	–	> 100 µM	–	> 100 µM	–	> 100 µM	–	> 100 µM	–	> 100 µM	–	> 100 µM	–	> 100 µM	–	> 100 µM	–	> 100 µM
O=C1C(Nc2ccccn2)=C(I)C(=O)c2ncccc21	0.367 µM	1.42 µM	1.2 µM	4.9 µM	2.75 µM	8.48 µM	0.307 µM	0.947 µM	0.378 µM	1.6 µM	1.75 µM	5.12 µM	1.25 µM	2.75 µM	1.34 µM	3.8 µM	0.274 µM	10 µM	0.33 µM	1.63 µM
C[C@]12CC[C@@H]3c4ccc(O)cc4CC[C@H]3[C@@H]1CC[C@@H]2NS(=O)(=O)c1cccc(Br)c1	5.22 µM	17 µM	4.04 µM	24.8 µM	3.76 µM	12.7 µM	2.69 µM	9.21 µM	–	–	2.83 µM	12.2 µM	2.15 µM	6.2 µM	3.98 µM	16.6 µM	2.37 µM	7.63 µM	4.07 µM	18 µM
COc1ccc(/C=N/NC(=O)O)cc1	–	> 100 µM	–	> 100 µM	–	> 100 µM	–	> 100 µM	–	> 100 µM	–	> 100 µM	–	> 100 µM	–	–	–	> 100 µM	–	> 100 µM
O=C(Nc1ccc(-n2cc(-c3ccncc3)c(-c3ccc(Cl)c(O)c3)n2)cc1)c1cc(Cl)cc(Cl)c1	> 32.8 µM	> 100 µM	4.3 µM	> 100 µM	2.68 µM	> 23.6 µM	3.45 µM	> 100 µM	> 100 µM	> 100 µM	3.87 µM	> 100 µM	0.291 µM	0.879 µM	> 100 µM	> 100 µM	3.33 µM	> 100 µM	3.72 µM	> 28.8 µM
NC(N)=NC(N)=NCCc1ccccc1	> 100 µM	> 100 µM	> 100 µM	> 100 µM	> 100 µM	> 100 µM	> 100 µM	> 100 µM	83.9 µM and > 100 µM	> 100 µM	45.3 µM and 60.3 µM	> 100 µM	> 100 µM	> 100 µM	> 100 µM	> 100 µM	8.44 µM	> 100 µM	> 100 µM	> 100 µM
O=c1cccc(C#CCCCCOC2CCCO2)o1 (configuration not stated)	10.3 µM	> 80 µM	7.46 µM	29.2 µM	16.5 µM	> 60.5 µM	16.1 µM	44.8 µM	11.2 µM	27.1 µM	6.73 µM	> 54.6 µM	6.77 µM	50.2 µM	9.14 µM	> 77.6 µM	20.4 µM	> 100 µM	8.96 µM	> 56.7 µM
COc1cc2cc(C(=O)O)[nH]c2cc1OCc1ccccc1	> 100 µM	> 100 µM	> 100 µM	> 100 µM	> 100 µM	> 100 µM	> 100 µM	> 100 µM	> 100 µM	> 100 µM	> 100 µM	> 100 µM	> 100 µM	> 100 µM	> 100 µM	> 100 µM	> 100 µM	> 100 µM	> 100 µM	> 100 µM
CC1=CC(C)C(O)C(C)/C=C/C(O)C/C=C(/C)C(=O)CC(O)C(C)\C=C/C=C/C=C\C(=O)NC2=C(O)c3cc(C)c(O)c(c3C(=O)C2=O)C1=O (configuration not stated)	–	> 100 µM	–	> 100 µM	–	> 100 µM	–	> 100 µM	–	> 100 µM	–	> 100 µM	–	–	–	> 100 µM	–	> 100 µM	–	> 100 µM
c1ccc(-c2cc(-c3cc(-c4ccccn4)[nH]n3)n[nH]2)nc1	–	> 100 µM	–	> 100 µM	–	> 100 µM	–	> 100 µM	–	> 100 µM	–	> 100 µM	–	> 100 µM	–	> 100 µM	–	80.6 µM	–	> 100 µM
O=C=Nc1ccc(Cc2ccc(N=C=O)cc2)cc1 (tested in a mixture with another compound)	> 25 mg/L	> 25 mg/L	> 25 mg/L	> 25 mg/L	> 25 mg/L	> 25 mg/L	> 25 mg/L	> 25 mg/L	> 25 mg/L	> 25 mg/L	> 25 mg/L	> 25 mg/L	> 25 mg/L	> 25 mg/L	> 25 mg/L	> 25 mg/L	> 25 mg/L	> 25 mg/L	> 25 mg/L	> 25 mg/L
Nc1cc(C(F)F)c(-c2nc(N3[C@@H]4CC[C@H]3COC4)nc(N3[C@@H]4CC[C@H]3COC4)n2)cn1	0.426 µM	> 100 µM	0.18 µM	0.908 µM	0.628 µM	> 100 µM	0.378 µM	> 30.6 µM	0.435 µM	> 100 µM	0.239 µM	> 100 µM	0.18 µM	0.816 µM	0.374 µM	> 100 µM	0.191 µM	21 µM	0.803 µM	> 100 µM
NC1=C(c2nc(-c3cc4ccccc4oc3=O)cs2)C(c2ccco2)c2c(c3ccccc3oc2=O)O1 (configuration not stated)	> 150 mg/L	> 150 mg/L	39.6 mg/L	139 mg/L	> 150 mg/L	> 150 mg/L	> 150 mg/L	> 150 mg/L	> 150 mg/L	> 150 mg/L	> 150 mg/L	> 150 mg/L	17.3 mg/L	114 mg/L	68.4 mg/L	> 150 mg/L	51.9 mg/L	> 150 mg/L	> 150 mg/L	> 150 mg/L
Cc1oc2c(c1C(=O)c1ccccc1)C(=O)c1ccccc1C2=O	–	24.6 µM	–	> 100 µM	–	39.6 µM	–	2.97 µM	–	6.22 µM	–	21.7 µM	–	8.2 µM	–	32.8 µM	–	> 36.6 µM	–	4.59 µM
CN(C)CCCC1(c2ccc(F)cc2)OCc2cc(-c3ccc4cc[nH]c4c3)ccc21 (configuration not stated)	1.9 µM	3.46 µM	1.8 µM	4.27 µM	2.33 µM	5.93 µM	1.73 µM	3.23 µM	1.74 µM	3.35 µM	2.17 µM	5.36 µM	2.48 µM	7.56 µM	1.64 µM	3.26 µM	2.41 µM	5.41 µM	1.83 µM	3.64 µM
O=[N+]([O-])c1ccc2nc(N/N=C/c3ccc(O)cc3)sc2c1	3.96 µM	38.1 µM	3.7 µM	38.3 µM	8.31 µM	28 µM	3.61 µM	91.9 µM	3.4 µM	14.6 µM	4.51 µM	34.2 µM	10.9 µM	66.9 µM	4.84 µM	53.1 µM	3.07 µM	20.7 µM	4.91 µM	27.2 µM
C/C=C(/C)C(=O)OC1C=C(CO)C(=O)C(OC(=O)/C(C)=C\C)C1C(C)C (configuration not stated)	0.618 µM	1.95 µM	2.35 µM	6.29 µM	0.625 µM	2.33 µM	0.95 µM	2.33 µM	0.48 µM	1.66 µM	0.599 µM	1.8 µM	1.13 µM	2.54 µM	1.46 µM	3.05 µM	0.315 µM	3.69 µM	–	–
O=C(N/N=C/c1cc2ccccc2c2ccccc12)c1cc(O)c(O)c(O)c1	5.79 µM	27 µM	2.67 µM	8.86 µM	9.95 µM	31 µM	3.58 µM	16.9 µM	–	–	3.28 µM	15.6 µM	2.77 µM	10.1 µM	3.74 µM	14.7 µM	3.72 µM	> 100 µM	2.96 µM	12.4 µM
